Assay results: paper PMC12527173, “Cytotoxic, anti-inflammatory, antioxidant, and anti-glyoxalase-I evaluation of chelating substances: In silico and in vitro study” (PLOS One, 2025)
Like-named read-outs stand apart in the source and are kept apart here.

Columns and labels:
[1] = test system: SW480 colorectal cancer cell line; test: SRB cytotoxicity assay, SW480; format: cell-based; conditions: Homo sapiens, 72 h incubation, n = 12, read-out: Cytotoxicity (as of %Control) IC50 value SW480
Protocol: (§1) The cancer cell lines were cultured in DMEM supplemented with 10% FBS (Bio Whittaker, Verviers, Belgium), HEPES Buffer (10 mM), gentamicin (50 µg/mL), L-glutamine (100 μg/mL), streptomycin ([…]), penicillin (100 µg/mL), and 4-(2-hydroxyethyl)-1-piperazineethanesulfonic acid (HEPES) Buffer (Sigma, St. Luis, MO, USA). The Sulforhodamine B used was obtained from Santa Cruz Biotechnology, Inc. in Texas, USA. […] Periodontal ligament fibroblasts (PDL) were utilized to assess specific cytotoxicity. Cancer cell lines that have survived offer several benefits. They provide a consistent and uninterrupted source of cells, so bypassing any ethical concerns related to the use of human tissue. Additionally, they are cost-effective. The cytotoxicity levels were assessed using the Sulforhodamine B (SRB) colorimetric assay, provided by Santa Cruz Biotechnology, Inc. in Texas, USA. The Spectro Scan 80D UV-VIS spectrophotometer, manufactured by Sedico Ltd. in Nicosia, Cyprus, was employed for this cytotoxicity screening. The cells were co-incubated with substances or a reference agent at various doses ranging from 5 to 200 μg/mL. […] The reduction in cell viability was analyzed by plotting Dose-response curves and expressing the data as a percentage of the control optical density. The IC50 values were obtained using regression analysis.

[2] = test system: PANC1 pancreatic cell line; test: SRB cytotoxicity assay, PANC1; format: cell-based; conditions: Homo sapiens, PANC-1, 72 h incubation, n = 12, read-out: Cytotoxicity (as of %Control) IC50 value PANC1
Protocol: as §1

[3] = DPPH free radical scavenger assay; conditions: DPPH radical scavenging; n = 12
From the text: This approach relies on the reduction of the radicals, which causes a change in colour from oxidized purple to reduced yellow. Primarily, Diphenyl-2-picryl-hydrazyl (DPPH) is reduced in a solution of methanol (MeOH) when a chemical that donates hydrogen is present. This reduction is due to the creation of the non-radical form DPPH-H. The alteration in colour can be precisely assessed by employing a spectrophotometer within the wavelength range of 515–520 nm. Unlike other assays for radical scavenging, the DPPH radical is stable and yields consistent spectroscopic data. A 0.2 mM DPPH solution was diluted with MeOH and then combined with treatment compounds and ascorbic acid in a 1:1 concentration ratio using a 96-well plate. […] The solution was then incubated for one hour, isolated from light. Subsequently, the alteration in absorbance at a wavelength of 517 nm was quantified using a microplate reader manufactured by Bio-Tek Instrument in the United States. Ascorbic acid served as a strong and traditional benchmark for comparing the effectiveness of radical scavenging agents. The DPPH radical scavenging activity inhibition was calculated using the following equation, where A denotes photometric absorbance: The formula to calculate the percentage difference between a control and a sample is: (A control – A sample)/ A control x 100% [71, 72].

[4] = test system: LPS-primed RAW 264.7 murine macrophages (nitrite / iNOS); test: Anti-inflammatory (nitrite) determination in LPS-primed macrophages; format: cell-based; conditions: Mus musculus, read-out: iNOS- IC50 value
Protocol: The RAW 264.7 mouse macrophage cell line (ATCC® TIB-71) was cultivated in high glucose DMEM with 10% foetal bovine serum (FBS), 100 U/mL penicillin, 100 μg/mL streptomycin, and 100 μg/mL L-glutamate. The cells were incubated at 37°C in a humidified environment with 95% air and 5% CO2. Confluent macrophages (2 x 10^5/well) were cultured with lipopolysaccharide (LPS; 20 μg/mL; Sigma, St. Luis, MO, USA) and indomethacin (25–200 μg/mL) as the positive control, along with various concentrations (5–200 μg/mL) of treatment compounds. The cells were incubated for 24 hours. 100 μL of Griess reagent were combined with 100 μL portions of cell culture medium and left to incubate at room temperature for 10 minutes. The absorbance at a wavelength of 550 nm was measured using a microplate reader, namely the Spectro Scan 80D UV-VIS spectrophotometer manufactured by Sedico Ltd. in Nicosia, Cyprus. The nitrite concentration was assessed by comparing it to a standard curve of sodium nitrite. A cytotoxicity protocol using SRB was conducted to assess the impact of the test substances under study on RAW 264.7 viability.

[5] = test system: A549 lung cancer cell line; test: SRB cytotoxicity assay, A549; format: cell-based; conditions: Homo sapiens, 72 h incubation, n = 12, read-out: Cytotoxicity (as of %Control) IC50 value A549 lung malignancy
Protocol: as §1

[6] = RAW264.7, LPS-primed RAW 264.7, nitrite by Griess, 24 h, n = 12

Question: Which results are given for `C[C@]12CC[C@@H]3c4ccc(O)c(O)c4CC[C@H]3[C@@H]1CC[C@@H]2O` [4-hydroxy-estradiol]?
Answer: IC50 [1]: 109 ± 6.86 µM; IC50 [2]: 66.9 ± 2.69 µM; IC50 [3]: 506 ± 102 µM; IC50 [4, 6]: 0.25 ± 0.04 µM; IC50 [5]: 15.2 ± 1.34 µM

Question: For `O=c1cc(O)cc(/C=C/c2ccc(O)c(O)c2)o1` [Hispidin], which IC50 [1] is on record?
Answer: The IC50 was 34.6 ± 3.11 µM.

Question: And the IC50 [2]?
Answer: Its IC50 is 130 ± 2.08 µM.

Question: What about the IC50 [3] of the same compound?
Answer: The IC50 was 26.3 ± 0.65 µM.

Question: What about the IC50 [4, 6] of the same compound?
Answer: The IC50 was 3.47 ± 0.49 µM.

Question: And the IC50 [5]?
Answer: The IC50 was 26 ± 5.22 µM.

Question: Which IC50 [1] does the source give for `O=C1c2ccc(O)c(O)c2C(=O)c2c(O)ccc(O)c21` [Quinalizarin] here?
Answer: Its IC50 is 118 ± 3.04 µM.

Question: And the IC50 [2]?
Answer: Its IC50 is 127 ± 2.52 µM.

Question: And the IC50 [3]?
Answer: The IC50 was 580 ± 26.5 µM.

Question: What about the IC50 [4, 6] of the same compound?
Answer: The IC50 was 1.85 ± 0.34 µM.

Question: What about the IC50 [5] of the same compound?
Answer: The IC50 was 7.9 ± 0.71 µM.

Question: Which results are given for `Cc1ccc(C(=O)c2cc(O)c(O)c([N+](=O)[O-])c2)cc1` [Tolcapone, reference compound]?
Answer: IC50 [1]: 165 ± 6.58 µM; IC50 [2]: 119 ± 9.28 µM; IC50 [3]: 92.1 ± 2.4 µM; IC50 [4, 6]: 1.19 ± 0.17 µM; IC50 [5]: 62 ± 2.21 µM

Question: Which results are given for `CC(C)=CC[C@@H](O)C1=CC(=O)c2c(O)ccc(O)c2C1=O` [Shikonin]?
Answer: IC50 [1]: 41.6 ± 6.37 µM; IC50 [2]: 80 ± 2.11 µM; IC50 [3]: 34.4 ± 5.04 µM; IC50 ([4]; RAW264.7, 24 h): 0.27 ± 0.05 µM; IC50 [5]: 54 ± 5.8 µM

Question: For `CC(/C=C/C(=O)NO)=C\[C@@H](C)C(=O)c1ccc(N(C)C)cc1` [Trichostatin A, reference compound], which IC50 [1] is on record?
Answer: Its IC50 is 44.3 ± 4.67 µM.

Question: And the IC50 [2]?
Answer: Its IC50 is 95.8 ± 8.2 µM.

Question: What about the IC50 [3] of the same compound?
Answer: Its IC50 is 99.3 ± 15.5 µM.

Question: And the IC50 [4, 6]?
Answer: The IC50 was 1.69 ± 0.12 µM.

Question: What about the IC50 [5] of the same compound?
Answer: The IC50 was 2 ± 0.21 µM.
